In PubChem BioAssay AID1963845 (Molecular Pharmacology Branch, DTP, NCI, 2024):
pIC50: −log10 of the molar value.

Tested on: 429239-143-T-J1-PDC complex spheroid viability
Experiment: Anticancer human tumor 429239-143-T-J1-PDC patient-derived small cell lung carcinoma cell line growth inhibition [POLQ]
Conditions: for pIC50: curve of first compound; for viability, T/C: stronger effect = lower value; active = viability on the fitted dose curve at most 10% of control; inactive = the rest
In short: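 Growth inhibition in 3D: complex spheroids (tumor PDC, HUVEC, MSC) treated with POLQ inhibitor combinations; where Cmax unknown, highest tested concentration 10 microM, except SN-38 at 1 microM.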

[1] = second compound 0.0316 µM, first compound 0.0316 µM
[2] = second compound 0.0316 µM, first compound 0.1 µM
[3] = second compound 0.0316 µM, first compound 0.316 µM
[4] = second compound 0.0316 µM, first compound 1 µM
[5] = second compound 0.0316 µM, first compound 3.16 µM
[6] = second compound 0.0316 µM, first compound 10 µM
[7] = second compound 0.1 µM, first compound 0.0316 µM
[8] = second compound 0.1 µM, first compound 0.1 µM
[9] = second compound 0.1 µM, first compound 0.316 µM
[10] = second compound 0.1 µM, first compound 1 µM
[11] = second compound 0.1 µM, first compound 3.16 µM
[12] = second compound 0.1 µM, first compound 10 µM
[13] = second compound 0.316 µM, first compound 0.0316 µM
[14] = second compound 0.316 µM, first compound 0.1 µM
[15] = second compound 0.316 µM, first compound 0.316 µM
[16] = second compound 0.316 µM, first compound 1 µM
[17] = second compound 0.316 µM, first compound 3.16 µM
[18] = second compound 0.316 µM, first compound 10 µM
[19] = second compound 1 µM, first compound 0.0316 µM
[20] = second compound 1 µM, first compound 0.1 µM
[21] = second compound 1 µM, first compound 0.316 µM
[22] = second compound 1 µM, first compound 1 µM
[23] = second compound 1 µM, first compound 3.16 µM
[24] = second compound 1 µM, first compound 10 µM
[25] = second compound 3.16 µM, first compound 0.0316 µM
[26] = second compound 3.16 µM, first compound 0.1 µM
[27] = second compound 3.16 µM, first compound 0.316 µM
[28] = second compound 3.16 µM, first compound 1 µM
[29] = second compound 3.16 µM, first compound 3.16 µM
[30] = second compound 3.16 µM, first compound 10 µM
[31] = second compound 10 µM, first compound 0.0316 µM
[32] = second compound 10 µM, first compound 0.1 µM
[33] = second compound 10 µM, first compound 0.316 µM
[34] = second compound 10 µM, first compound 1 µM
[35] = second compound 10 µM, first compound 3.16 µM
[36] = second compound 10 µM, first compound 10 µM
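Also: luminescence signal used as surrogate measure of viable cells; spheroids exposed to compounds for seven days before readout.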
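For viability, T/C in this document: 100% = DMSO vehicle control viability as luminescence relative to vehicle.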

Nc1ccn(C2OC(CO)C(O)C2(F)F)c(=O)n1 (stereo not given) + Cc1cccc(N(C)C(=O)C2C(O)CCN2c2nc(C)cc(C(F)(F)F)c2C#N)c1
> 7.50: pIC50 (second compound 0.0316 µM) | pIC50 (second compound 0.1 µM) | pIC50 (second compound 0.316 µM) | pIC50 (second compound 1 µM) | pIC50 (second compound 3.16 µM) | pIC50 (second compound 10 µM)
inactive: viability, T/C [1] 19.2% | viability, T/C [2] 20.4% | viability, T/C [3] 17.1% | viability, T/C [4] 18% | viability, T/C [5] 18.3% | viability, T/C [6] 17.3% | viability, T/C [7] 20.3% | viability, T/C [8] 20% | viability, T/C [9] 15.1% | viability, T/C [10] 20.4% | viability, T/C [11] 18% | viability, T/C [12] 16.5% | viability, T/C [13] 18.5% | viability, T/C [14] 16.1% | viability, T/C [15] 18.6% | viability, T/C [16] 20.8% | viability, T/C [17] 19.3% | viability, T/C [18] 17.1% | viability, T/C [19] 21.8% | viability, T/C [20] 16.5% | viability, T/C [21] 18.2% | viability, T/C [22] 16.6% | viability, T/C [23] 17.2% | viability, T/C [24] 17.5% | viability, T/C [25] 25.2% | viability, T/C [26] 17.2% | viability, T/C [27] 21.9% | viability, T/C [28] 18.5% | viability, T/C [29] 15.5% | viability, T/C [30] 18.3% | viability, T/C [31] 24.9% | viability, T/C [32] 15.6% | viability, T/C [33] 20.8% | viability, T/C [34] 17.9% | viability, T/C [35] 20.2% | viability, T/C [36] 19.4%

CC1COCCN1c1cc(C2(S(C)(=N)=O)CC2)nc(-c2ccnc3[nH]ccc23)n1 (stereo not given) + COC1C(OC(N)=O)C(O)C(Oc2ccc3c(O)c(NC(=O)c4ccc(O)c(CC=C(C)C)c4)c(=O)oc3c2C)OC1(C)C
5.70: pIC50 (second compound 0.316 µM)
inactive: viability, T/C [1] 116% | viability, T/C [2] 100% | viability, T/C [3] 89.4% | viability, T/C [4] 79.4% | viability, T/C [5] 35.6% | viability, T/C [6] 15.6% | viability, T/C [7] 107% | viability, T/C [8] 105% | viability, T/C [9] 96.2% | viability, T/C [10] 73.5% | viability, T/C [11] 37.6% | viability, T/C [12] 15.1% | viability, T/C [13] 103% | viability, T/C [14] 94.3% | viability, T/C [15] 100% | viability, T/C [16] 61.1% | viability, T/C [17] 42.4% | viability, T/C [18] 17.3% | viability, T/C [19] 120% | viability, T/C [20] 94.1% | viability, T/C [21] 95.3% | viability, T/C [22] 88.1% | viability, T/C [23] 38.1% | viability, T/C [24] 21.4% | viability, T/C [25] 90.6% | viability, T/C [26] 109% | viability, T/C [27] 100% | viability, T/C [28] 72.6% | viability, T/C [29] 31.7% | viability, T/C [30] 18.8% | viability, T/C [31] 89.8% | viability, T/C [32] 103% | viability, T/C [33] 106% | viability, T/C [34] 72.1% | viability, T/C [35] 47% | viability, T/C [36] 16.6%
5.61: pIC50 (second compound 1 µM)
5.67: pIC50 (second compound 0.1 µM)
5.59: pIC50 (second compound 10 µM)
5.64: pIC50 (second compound 0.0316 µM)
5.73: pIC50 (second compound 3.16 µM)

CNCc1ccc(-c2[nH]c3cc(F)cc4c3c2CCNC4=O)cc1 + Nc1ccc(C#CCN(C(=O)Cc2ncc(C(F)(F)F)cc2C(F)(F)F)c2ccc(F)cc2)nn1
5.19: pIC50 (second compound 0.0316 µM)
5.20: pIC50 (second compound 0.316 µM)
5.26: pIC50 (second compound 1 µM)
inactive: viability, T/C [1] 98.7% | viability, T/C [2] 99.6% | viability, T/C [3] 97.7% | viability, T/C [4] 94.6% | viability, T/C [5] 82.4% | viability, T/C [6] 30.9% | viability, T/C [7] 92.7% | viability, T/C [8] 88.4% | viability, T/C [9] 90.6% | viability, T/C [10] 86.8% | viability, T/C [11] 80.6% | viability, T/C [12] 26.5% | viability, T/C [13] 97.2% | viability, T/C [14] 94.7% | viability, T/C [15] 98.5% | viability, T/C [16] 93.5% | viability, T/C [17] 79.4% | viability, T/C [18] 30.6% | viability, T/C [19] 106% | viability, T/C [20] 96.1% | viability, T/C [21] 86.3% | viability, T/C [22] 84.8% | viability, T/C [23] 79.3% | viability, T/C [24] 24% | viability, T/C [25] 104% | viability, T/C [26] 92.2% | viability, T/C [27] 94.7% | viability, T/C [28] 90.7% | viability, T/C [29] 75.1% | viability, T/C [30] 31.4% | viability, T/C [31] 101% | viability, T/C [32] 80.5% | viability, T/C [33] 87.6% | viability, T/C [34] 83% | viability, T/C [35] 81.8% | viability, T/C [36] 24.1%
5.22: pIC50 (second compound 0.1 µM) | pIC50 (second compound 3.16 µM) | pIC50 (second compound 10 µM)

CNCc1ccc(-c2[nH]c3cc(F)cc4c3c2CCNC4=O)cc1 + Cc1cccc(N(C)C(=O)C2C(O)CCN2c2nc(C)cc(C(F)(F)F)c2C#N)c1
inactive: viability, T/C [1] 113% | viability, T/C [2] 83.8% | viability, T/C [3] 85.1% | viability, T/C [4] 75% | viability, T/C [5] 51% | viability, T/C [6] 21.1% | viability, T/C [7] 90.9% | viability, T/C [8] 92.7% | viability, T/C [9] 79.4% | viability, T/C [10] 66.2% | viability, T/C [11] 47.5% | viability, T/C [12] 19.7% | viability, T/C [13] 97.8% | viability, T/C [14] 94.7% | viability, T/C [15] 75.8% | viability, T/C [16] 70.7% | viability, T/C [17] 40% | viability, T/C [18] 22.7% | viability, T/C [19] 86.7% | viability, T/C [20] 82.3% | viability, T/C [21] 72.3% | viability, T/C [22] 66.2% | viability, T/C [23] 42.4% | viability, T/C [24] 24.4% | viability, T/C [25] 91.3% | viability, T/C [26] 84.9% | viability, T/C [27] 95.5% | viability, T/C [28] 62.9% | viability, T/C [29] 47.8% | viability, T/C [30] 22% | viability, T/C [31] 80.3% | viability, T/C [32] 91.4% | viability, T/C [33] 83.8% | viability, T/C [34] 61.8% | viability, T/C [35] 54.2% | viability, T/C [36] 23%
5.59: pIC50 (second compound 0.1 µM)
5.65: pIC50 (second compound 1 µM)
5.51: pIC50 (second compound 0.0316 µM)
5.49: pIC50 (second compound 10 µM)
5.66: pIC50 (second compound 0.316 µM)
5.61: pIC50 (second compound 3.16 µM)

O=C(c1cc(Cc2n[nH]c(=O)c3ccccc23)ccc1F)N1CCN(C(=O)C2CC2)CC1 + Nc1ccc(C#CCN(C(=O)Cc2ncc(C(F)(F)F)cc2C(F)(F)F)c2ccc(F)cc2)nn1
5.37: pIC50 (second compound 3.16 µM)
5.40: pIC50 (second compound 0.1 µM)
5.39: pIC50 (second compound 0.316 µM)
5.38: pIC50 (second compound 0.0316 µM) | pIC50 (second compound 1 µM)
inactive: viability, T/C [1] 101% | viability, T/C [2] 98.4% | viability, T/C [3] 92.4% | viability, T/C [4] 84.9% | viability, T/C [5] 64.8% | viability, T/C [7] 96.6% | viability, T/C [8] 104% | viability, T/C [9] 90% | viability, T/C [10] 95.9% | viability, T/C [11] 60.8% | viability, T/C [13] 104% | viability, T/C [14] 99.1% | viability, T/C [15] 91.3% | viability, T/C [16] 81.2% | viability, T/C [17] 65.8% | viability, T/C [19] 105% | viability, T/C [20] 94.4% | viability, T/C [21] 88.5% | viability, T/C [22] 84.9% | viability, T/C [23] 64.8% | viability, T/C [25] 97.6% | viability, T/C [26] 93.4% | viability, T/C [27] 90.8% | viability, T/C [28] 95.2% | viability, T/C [29] 64.3% | viability, T/C [31] 102% | viability, T/C [32] 92% | viability, T/C [33] 93.5% | viability, T/C [34] 88.9% | viability, T/C [35] 55.4%
active: viability, T/C [6] 7.77% | viability, T/C [12] 6.66% | viability, T/C [18] 9.12% | viability, T/C [24] 8.72% | viability, T/C [30] 8.47% | viability, T/C [36] 6.04%
5.44: pIC50 (second compound 10 µM)
